According to BindingDB's records for doi:10.3109/14756369709035816 (R & D, Zambon Group, 1997):

Biological target: T1, Neprilysin (Rattus norvegicus, UniProt P07861)
T1 sequence (P07861 whole entry): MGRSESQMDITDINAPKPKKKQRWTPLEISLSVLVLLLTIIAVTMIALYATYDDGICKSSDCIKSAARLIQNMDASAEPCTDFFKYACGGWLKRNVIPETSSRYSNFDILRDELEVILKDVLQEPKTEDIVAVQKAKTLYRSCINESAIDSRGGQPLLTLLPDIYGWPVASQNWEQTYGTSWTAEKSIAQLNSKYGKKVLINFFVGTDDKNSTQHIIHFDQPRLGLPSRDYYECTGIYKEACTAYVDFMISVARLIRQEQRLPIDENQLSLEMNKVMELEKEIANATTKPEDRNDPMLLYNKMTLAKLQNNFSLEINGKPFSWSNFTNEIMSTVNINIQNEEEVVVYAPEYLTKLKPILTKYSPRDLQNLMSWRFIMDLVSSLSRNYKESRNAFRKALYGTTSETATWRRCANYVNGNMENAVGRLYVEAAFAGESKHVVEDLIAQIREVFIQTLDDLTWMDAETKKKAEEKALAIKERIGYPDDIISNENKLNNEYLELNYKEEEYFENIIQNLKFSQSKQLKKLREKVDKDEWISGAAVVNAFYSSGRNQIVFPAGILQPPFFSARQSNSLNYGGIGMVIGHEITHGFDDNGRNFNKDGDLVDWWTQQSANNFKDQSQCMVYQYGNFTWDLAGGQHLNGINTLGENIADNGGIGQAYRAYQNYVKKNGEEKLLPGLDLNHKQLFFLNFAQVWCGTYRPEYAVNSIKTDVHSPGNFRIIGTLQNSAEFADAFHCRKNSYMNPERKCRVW
Assay: Enzyme Inhibition Assay
Details: 25 °C
Description: Enzyme inhibition assay using neutrol endopeptiase EC 3.4.24.11 (NEP).

| Compound | IC50 [nM] |
| --- | --- |
| O=C(Nc1ccccc1)c1ccnc(NC(=O)C(CS)Cc2ccccc2)c1 (configuration not stated) [NEP inhibitor, 6s] | 250 |
| O=C(O)c1ccnc(NC(=O)C(CS)Cc2ccccc2)c1 (configuration not stated) [NEP inhibitor, 6i] | 3 |
| O=C(Nc1ccn[nH]1)C(CS)Cc1ccccc1 (configuration not stated) [NEP inhibitor, 6q] | 23 |
| O=C(O)c1cc(NC(=O)C(CS)Cc2ccccc2)c[nH]1 (configuration not stated) [NEP inhibitor, 6m] | 2 |
| O=C(O)c1cc(NC(=O)C(CS)Cc2ccc(Cl)cc2)c[nH]1 (configuration not stated) [NEP inhibitor, 6n] | 2 |

Continued by falling IC50, values first:

| IC50 [nM] | Compound |
| --- | --- |
| 60 | CC(CS)C(=O)Nc1cncc(C(=O)O)c1 (configuration not stated) [NEP inhibitor, 6g] |
| 13 | O=C(O)c1cc(NC(=O)C(CS)Cc2cccnc2)cs1 (configuration not stated) [NEP inhibitor, 6l] |
| 9 | O=C(O)c1csc(NC(=O)C(CS)Cc2ccccc2)n1 (configuration not stated) [NEP inhibitor, 6p] |
| 5.5 | O=C(O)c1ccnc(NC(=O)C(CS)Cc2ccc3c(c2)OCO3)c1 (configuration not stated) [NEP inhibitor, 6j] |
| 5 | O=C(O)c1cncc(NC(=O)C(CS)Cc2ccccc2)c1 (configuration not stated) [NEP inhibitor, 6h] |
| 5 | CN(C)C(=O)c1ccnc(NC(=O)C(CS)Cc2ccccc2)c1 (configuration not stated) [NEP inhibitor, 6r] |
| 2 | O=C(O)c1cc(NC(=O)C(CS)Cc2ccccc2)cs1 (configuration not stated) [NEP inhibitor, 6k] |
